According to PMC2674222 (Biochemistry, 2009):
Where two headings read alike, the source gives them in different places. Blank lines part the entries; values can stand above or below the molecule they belong to.

Key:
F159W-Leuko-PNP [1] = biological target: T1, F159W-Leuko-PNP (Homo sapiens, UniProt P00491, F159W/W16Y/W178Y/W94Y); details: relative to native and Leuko-PNP (Table 2)
T1 sequence (P00491 1-289 W16Y/W94Y/F159W/W178Y): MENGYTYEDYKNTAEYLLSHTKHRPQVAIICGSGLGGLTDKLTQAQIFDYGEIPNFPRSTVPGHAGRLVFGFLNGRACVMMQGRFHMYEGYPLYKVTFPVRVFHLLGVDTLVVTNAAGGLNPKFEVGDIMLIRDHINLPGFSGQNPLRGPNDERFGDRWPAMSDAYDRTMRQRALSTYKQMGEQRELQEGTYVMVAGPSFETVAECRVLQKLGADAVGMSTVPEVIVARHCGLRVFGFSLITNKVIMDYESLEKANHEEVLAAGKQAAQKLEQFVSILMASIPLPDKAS

Leuko-PNP [2] = details: read-out: Ki* (slow-onset tight binding constant); 50 mM KH2PO4, pH 7.4, 25 °C; cited from earlier work
Native PNP [3] = details: read-out: Ki* (slow-onset tight binding constant); 50 mM KH2PO4, pH 7.4, 25 °C; cited from earlier work
Native PNP [4] = details: inosine as substrate; 50 mM KH2PO4, pH 7.4, 25 °C; cited from earlier work
F159W-Leuko-PNP [5] = biological target: T1, F159W-Leuko-PNP; assay: Steady state kinetics, xanthine oxidase coupled assay with inosine as substrate; assay type: biochemical
F159W-Leuko-PNP [6] = biological target: T1, F159W-Leuko-PNP; assay: Fluorometric titration of hypoxanthine-free enzyme with ligands; assay type: binding; details: for Kd: pH 7.4, 25 °C
Leuko-PNP [7] = details: inosine as substrate; 50 mM KH2PO4, pH 7.4, 25 °C; cited from earlier work
Leuko-PNP-PO4 [8] = details: T-jump relaxation kinetics; cited from earlier work
Leuko-PNP-PO4 [9] = details: stopped-flow fluorometry; cited from earlier work
F159W-Leuko-PNP-PO4 [10] = biological target: T2, F159W-Leuko-PNP-PO4 (Homo sapiens, UniProt P00491, F159W/W16Y/W178Y/W94Y); assay: biochemical
F159W-Leuko-PNP-PO4 [11] = biological target: T2, F159W-Leuko-PNP-PO4; details: F159W-Leuko-PNP-Hx-PO4 system, 25 °C
[12] = substrate: OC[C@H]1O[C@@H](n2cnc3c(O)ncnc32)[C@H](O)[C@@H]1O; assay: Steady state kinetics, xanthine oxidase coupled assay with inosine as substrate; assay type: biochemical, human; details: other: inosine as substrate, 50 mM KH2PO4, pH 7.4, 25 °C

Molecule: 4'-deaza-1'-aza-2'-deoxy-1'-(9-methylene)-Immucillin-H [DADMe-ImmH]
reduction of binding affinity to F159W-Leuko-PNP (F159W-Leuko-PNP [1]): ~10 fold
Ki (Leuko-PNP [2]): 0.012 ± 0.003 nM
Ki (Native PNP [3]): 0.0085 ± 0.0003 nM

Km altered, F159W-Leuko-PNP vs native and Trp-free enzymes (F159W-Leuko-PNP [5]): ~7 fold
kcat altered, F159W-Leuko-PNP vs native and Trp-free enzymes (F159W-Leuko-PNP [5]): ~2 fold
overall catalytic efficiency reduced relative to native- and Leuko-PNPs (F159W-Leuko-PNP [5]): ~14 fold
Molecule: O=c1[nH]cnc2c1ncn2[C@@H]1O[C@H](CO)[C@@H](O)[C@H]1O [Inosine, inosine]
Km (Native PNP [4]): 71 ± 8 µM
kcat (Native PNP [4]): 44 ± 2 s⁻¹
effect on fluorescence emission spectrum of the enzyme (F159W-Leuko-PNP [6]; up to ∼100 μM, absence or presence of inorganic sulfate (up to 3 mM)): does not alter the fluorescence emission spectrum
Km (Leuko-PNP [7]): 50 ± 3 µM
kcat (Leuko-PNP [7]): 36 ± 1 s⁻¹

Molecule: Nc1nc2nc[nH]c2c(=O)[nH]1 [guanine]
koff (Leuko-PNP-PO4 [8]): 142 ± 36 s⁻¹
kon (Leuko-PNP-PO4 [8]): 3.6 ± 0.2 × 10^7 M^−1s^−1
koff (Leuko-PNP-PO4 [9]): 86 ± 8 s⁻¹
kon (Leuko-PNP-PO4 [9]): 2.7 ± 0.1 × 10^7 M^−1s^−1

Molecule: O=c1[nH]cnc2nc[nH]c12 [hypoxanthine]
Kd (F159W-Leuko-PNP [6]; absence of phosphate, 20 mM Tris-Cl): 3300 ± 200 nM
Kd (F159W-Leuko-PNP [6]; presence of phosphate (50 mM KH2PO4)): 16000 ± 2000 nM
decrease in fluorescence intensity upon titration (F159W-Leuko-PNP [6]; absence or presence of phosphate (50 mM KH2PO4), λex 295 nm): 3 fold
koff (F159W-Leuko-PNP-PO4 [10]; read-out: calculated dissociation rate (koff)): 178 ± 8 s⁻¹
kon (F159W-Leuko-PNP-PO4 [10]; read-out: rate of association (kon)): 1.2e+07 M⁻¹ s⁻¹
k1 (F159W-Leuko-PNP-PO4 [11]): (1.2 ± 0.1) × 10^7 M^−1s^−1
k−1 (F159W-Leuko-PNP-PO4 [11]): 178 ± 8 s⁻¹

Molecule: Immucillin-H [ImmH]
reduction of binding affinity to F159W-Leuko-PNP (F159W-Leuko-PNP [1]): ~20 fold
Ki (Leuko-PNP [2]): 0.134 ± 0.012 nM
Ki (Native PNP [3]): 0.088 ± 0.003 nM

B1: F159W-Leuko-PNP (Homo sapiens; F159W/W16Y/W178Y/W94Y) (protein)
chain: T1 sequence (P00491 1-289 W16Y/W94Y/F159W/W178Y)
Km [12]: 422 ± 30 µM
kcat [12]: 22 ± 1 s⁻¹
kcat/Km [12]: 52000 ± 4000 M⁻¹ s⁻¹
